Experimental data reported in US20130052644A1, “Predictive Markers Useful in the Treatment of Fragile X Syndrome (FXS)” (priority 2010, published 2013).

Legend:
Assay type in all cases: in vivo, human
[1] = test system: patients having Fragile X Syndrome (FXS); test: Clinical Global Impression (CGI) scale in clinical study, by FMR1 methylation status / mRNA expression; conditions: day 19; patients fully methylated (probe-based methylation assay, 12 patients analysed) and/or not expressing FMR1 mRNA; p<0.001
[2] = test system: patients having Fragile X Syndrome (FXS); test: as above; conditions: for CGI-global improvement, treatment difference / CGI-efficacy index, treatment difference: versus placebo, adjusted for baseline; for CGI-global improvement, treatment difference: decrease = improvement; for CGI-efficacy index, treatment difference: increase = improvement
Source text: (§1) As used herein, “an mGluR5 responder” is an individual having FXS who is likely following therapeutic treatment with an mGluR5 antagonist to show improved behavioral symptoms as assessed using the Aberrant Behavior Checklist—Community Edition (ABC-C) measure of behavior (Bihm et al., Am. J. Ment Retard 96:209-211). The ABC-C measurement looks at various behaviors including stereotypic behavior, hyperactivity, inappropriate speech, and restricted interests. […] The behavioral symptoms may also be assessed by other methods, such as Clinical Global Impression (CGI) scale, Social Responsiveness Scale (SRS), or Repetitive Behavior Scale-Revised (RBS-R). Individuals showing an improvement according to these tests will also be determined to be an mGluR5 responder.
(§2) The present examples were performed as a follow up to a clinical trial which investigated whether the mGluR5 antagonist (−)-(3aR,4S,7aR)-4-Hydroxy-4-m-tolylethynyl-octahydro-indole-1-carboxylic acid methyl ester could provide beneficial treatment to a subject having FXS. The present study was set up to identify if a subset of patients exist that respond to (−)-(3aR,4S,7aR)-4-Hydroxy-4-m-tolylethynyl-octahydro-indole-1-carboxylic acid methyl ester treatment. In an attempt to identify such a subset of patients who respond to (−)-(3aR,4S,7aR)-4-Hydroxy-4-m-tolylethynyl-octahydro-indole-1-carboxylic acid methyl ester treatment, a study was conducted to investigate the relationship between FMR1 methylation/mRNA expression and (−)-(3aR,4S,7aR)-4-Hydroxy-4-m-tolylethynyl-octahydro-indole-1-carboxylic acid methyl ester efficacy in the study.
(§3) Among the 30 patients who completed the clinical study, 26 consented for pharmacogenetic/pharmacogenomic assessments. Genomic DNA was extracted from whole blood according to the instructions from Gentra (Minneapolis, Minn.). Total RNA was extracted from whole blood according to the instructions from Qiagen (Valencia, Calif.). A total of 26 DNA and 24 RNA samples were successfully extracted and analyzed. In addition, normal control DNAs were purchased from Coriell Institute (Camden, N.J.).
(§4) Genomic DNA was treated with bisulfite (Qiagen, Valencia, Calif.). MSP was performed using the CpG WIZ Fragile X Amplification Kit from Chemicon (Temecula, Calif.) according to manufacture's instruction. A total of 26 patients and 4 normal controls were analyzed.
(§5) FMR1 mRNA expression was measured by Taqman real-time PCR. The primers and probe were designed by Applied Biosystems (Foster City, Calif.; fragile X mental retardation 1 Hs 00924544_ml, Glyceraldehyde-3-phosphate dehydrogenase Hs 99999905_ml; ubiquitin C Hs 00824723_ml)
(§6) The expression levels of the control genes, GAPDH and UBC, were used to adjust for inter-sample variability. The data is presented as normalized Ct (cycle threshold). A Ct value≧36 is considered to be the background of the assay. A total of 24 patients and 9 normal controls were analyzed.
(§7) Genomic DNA was treated with […] (Qiagen, Valencia, Calif.). The following primers were used to amplify the FMR1 promoter with 22 CpG sites: 5′-[…]-3′ (SEQ ID NO:10); and 5′-[…]-3′ (SEQ ID NO:11). The 196-bp FMR1 promoter was cloned using the TA cloning kit from Invitrogen (Carlsbad, Calif.) and 7-13 clones per patient were sequenced using ABI3730XL (Foster City, Calif.). More details can be found in the BMD report. A total of 26 patients and 4 normal controls were analyzed.

[3] = test system: patients having Fragile X Syndrome (FXS); test: Clinical response versus placebo in clinical study (measure not given)
Source text: As used herein, “an mGluR5 responder” is an individual having FXS who is likely following therapeutic treatment with an mGluR5 antagonist to show improved behavioral symptoms as assessed using the Aberrant Behavior Checklist—Community Edition (ABC-C) measure of behavior (Bihm et al., Am. J. Ment Retard 96:209-211). The ABC-C measurement looks at various behaviors including stereotypic behavior, hyperactivity, inappropriate speech, and restricted interests. […] The behavioral symptoms may also be assessed by other methods, such as Clinical Global Impression (CGI) scale, Social Responsiveness Scale (SRS), or Repetitive Behavior Scale-Revised (RBS-R). Individuals showing an improvement according to these tests will also be determined to be an mGluR5 responder. […]
Among the 30 patients who completed the clinical study, 26 consented for pharmacogenetic/pharmacogenomic assessments. […] A total of 26 DNA and 24 RNA samples were successfully extracted and analyzed. […]
Genomic DNA was treated with bisulfite (Qiagen, Valencia, Calif.). […] A total of 26 patients and 4 normal controls were analyzed.
FMR1 mRNA expression was measured by Taqman real-time PCR. […]
The expression levels of the control genes, GAPDH and UBC, were used to adjust for inter-sample variability. […] A total of 24 patients and 9 normal controls were analyzed. […]

[4] = test system: patients having Fragile X Syndrome (FXS); test: Aberrant Behavior Checklist-Community Edition (ABC-C) scores in clinical study, by FMR1 methylation status / mRNA expression; conditions: for ABC-C improvement in response over placebo / ABC-C Subscale I (Irritability), treatment difference / ABC-C Subscale II (Lethargy), treatment difference / ABC-C Subscale III (Stereotype), treatment difference / ABC-C Subscale IV (Hyperactivity), treatment difference / ABC-C Subscale V (Inappropriate Speech), treatment difference / ABC-C Total of subscales, treatment difference: day 19; for ABC-C Subscale I (Irritability), treatment difference / ABC-C Subscale II (Lethargy), treatment difference / ABC-C Subscale III (Stereotype), treatment difference / ABC-C Subscale IV (Hyperactivity), treatment difference / ABC-C Subscale V (Inappropriate Speech), treatment difference / ABC-C Total of subscales, treatment difference: versus placebo, adjusted for baseline
Source text: as §1, §2, §3, §4, §5, §6, §7

[5] = fully methylated patients after reclassification (MSP, bisulfite-sequencing, additional MSP), p<0.001
[6] = day 19, patients who did not express FMR1 mRNA (n = 7)
[7] = day 19, patients who expressed FMR1 mRNA (n = 17)
[8] = day 19, patients with full methylation (n = 8)
[9] = day 19, patients with partial methylation (n = 18)
[10] = day 19, reclassified: patients with full methylation (by MSP and sequencing) (n = 7)
[11] = day 19, reclassified: patients with partial methylation (by MSP and sequencing) (n = 18)
[12] = patients who did not express FMR1 mRNA (n = 7)
[13] = patients who expressed FMR1 mRNA (n = 17)
[14] = patients with full methylation (n = 8)
[15] = patients with partial methylation (n = 18)
[16] = reclassified: patients with full methylation (determined by MSP and sequencing) (n = 7)
[17] = reclassified: patients with partial methylation (determined by MSP and sequencing) (n = 18)

COC(=O)N1CC[C@@H]2[C@H]1CCC[C@@]2(O)C#Cc1cccc(C)c1 [(−)-(3aR,4S,7aR)-4-Hydroxy-4-m-tolylethynyl-octahydro-indole-1-carboxylic acid methyl ester]
CGI-efficacy index improvement in response over placebo [1]: significantly greater improvement | CGI-efficacy index improvement in response over placebo ([2]; day 19, patients fully methylated (initial MSP) or not expressing FMR1 mRNA, p<0.001): significantly greater improvement | CGI-efficacy index response versus placebo [2, 5]: significantly higher than placebo | CGI-global improvement, treatment difference [2, 6]: −2.02 | CGI-efficacy index, treatment difference [2, 6]: 1.99 | CGI-global improvement, treatment difference [2, 7]: 0.56 | CGI-efficacy index, treatment difference [2, 7]: −0.47 | CGI-global improvement, treatment difference [2, 8]: −1.94 | CGI-efficacy index, treatment difference [2, 8]: 1.86 | CGI-global improvement, treatment difference [2, 9]: 0.67 | CGI-efficacy index, treatment difference [2, 9]: −0.58 | CGI-global improvement, treatment difference [2, 10]: −1.78 | CGI-efficacy index, treatment difference [2, 10]: 1.76 | CGI-global improvement, treatment difference [2, 11]: 0.58 | CGI-efficacy index, treatment difference [2, 11]: −0.43 | Difference between compound and placebo ([3]; patients partially methylated (initial MSP) or expressing FMR1 mRNA): no significant differences | Difference between compound and placebo ([3]; patients partially methylated (probe-based methylation assay) or expressing FMR1 mRNA): no significant differences | ABC-C improvement in response over placebo ([4]; patients fully methylated (initial MSP) or not expressing FMR1 mRNA, p<0.001): significantly greater improvement | ABC-C improvement in response over placebo ([4]; patients fully methylated (probe-based methylation assay, 12 patients analysed) and/or not expressing FMR1 mRNA, p<0.001): significantly greater improvement | ABC-C response versus placebo [4, 5]: significantly higher than placebo | ABC-C Subscale I (Irritability), treatment difference [4, 12]: −3.69 | ABC-C Subscale II (Lethargy), treatment difference [4, 12]: −6.71 | ABC-C Subscale III (Stereotype), treatment difference [4, 12]: −3.03 | ABC-C Subscale IV (Hyperactivity), treatment difference [4, 12]: −9.12 | ABC-C Subscale V (Inappropriate Speech), treatment difference [4, 12]: −4.66 | ABC-C Total of subscales, treatment difference [4, 12]: −32.19 | ABC-C Subscale I (Irritability), treatment difference [4, 13]: −0.81 | ABC-C Subscale II (Lethargy), treatment difference [4, 13]: 1.93 | ABC-C Subscale III (Stereotype), treatment difference [4, 13]: 0.32 | ABC-C Subscale IV (Hyperactivity), treatment difference [4, 13]: −0.16 | ABC-C Subscale V (Inappropriate Speech), treatment difference [4, 13]: 1.09 | ABC-C Total of subscales, treatment difference [4, 13]: 2.23 | ABC-C Subscale I (Irritability), treatment difference [4, 14]: −4.33 | ABC-C Subscale II (Lethargy), treatment difference [4, 14]: −6.55 | ABC-C Subscale III (Stereotype), treatment difference [4, 14]: −3.96 | ABC-C Subscale IV (Hyperactivity), treatment difference [4, 14]: −8.77 | ABC-C Subscale V (Inappropriate Speech), treatment difference [4, 14]: −4.48 | ABC-C Total of subscales, treatment difference [4, 14]: −30.85 | ABC-C Subscale I (Irritability), treatment difference [4, 15]: −0.67 | ABC-C Subscale II (Lethargy), treatment difference [4, 15]: 3.76 | ABC-C Subscale III (Stereotype), treatment difference [4, 15]: 0.89 | ABC-C Subscale IV (Hyperactivity), treatment difference [4, 15]: 0.42 | ABC-C Subscale V (Inappropriate Speech), treatment difference [4, 15]: 1.09 | ABC-C Total of subscales, treatment difference [4, 15]: 5.66 | ABC-C Subscale I (Irritability), treatment difference [4, 16]: −2.66 | ABC-C Subscale II (Lethargy), treatment difference [4, 16]: −5.53 | ABC-C Subscale III (Stereotype), treatment difference [4, 16]: −5.06 | ABC-C Subscale IV (Hyperactivity), treatment difference [4, 16]: −8.55 | ABC-C Subscale V (Inappropriate Speech), treatment difference [4, 16]: −4.31 | ABC-C Total of subscales, treatment difference [4, 16]: −27.82 | ABC-C Subscale I (Irritability), treatment difference [4, 17]: −1.15 | ABC-C Subscale II (Lethargy), treatment difference [4, 17]: 2.66 | ABC-C Subscale III (Stereotype), treatment difference [4, 17]: 0.78 | ABC-C Subscale IV (Hyperactivity), treatment difference [4, 17]: −0.21 | ABC-C Subscale V (Inappropriate Speech), treatment difference [4, 17]: 0.81 | ABC-C Total of subscales, treatment difference [4, 17]: 3.10
